Assay [1] concerns suspension HEK293 cells. Briefly: FACS analysis (propidium iodide) of cell cycle phase of non-transfected suspension HEK293 cultures. In kind it is cell-based. The conditions noted are these: for cell synchronization, cell cycle phase by FACS: 24 hours with agent, non-transfected suspension HEK293 cultures, FIG. 2A. On the procedure:
Cell cycle phase of non-transfected, suspension HEK293 cultures was evaluated using fluorescence activated cell sorting (FACS). Suspension HEK293 cultures were grown in shake flasks for 24 hours with cycle arresting agents (aphidicolin, caffeine, colcemid, colchicine, flavopiridol, hydroxyurea, thymidine, trichostatin A, and vinblastine sulfate) prior to sampling for FACS analysis using propidium iodide (PI), which binds to DNA. Light intensity is indicative of the relative quantity of DNA present in a cell, which is a measure of cell phase. Forward scatter indicates the a size of a cell, while side scatter indicates the a size of intracellular components. Fluorescence of PI was measured using an excitation of 493 nm and emission of 646 nm.
A general note: Flow cytometry measures light scatter and fluorescence of single cells or particles in a stream.

Assay [2] has as its system suspension HEK293 cells. Briefly: rAAV production at manufacturing scale, batch and fed batch bioreactors, suspension HEK293 cells, Payload A. The class given is cell-based. The settings on record: added 0.5 hours post-transfection. On the procedure:
Scalability of microtubule destabilizing agents (colcemid and colchicine) for production of rAAV was also assessed in batch bioreactors and larger volume fed batch bioreactors for manufacturing scale. Suspension HEK293 cells were transiently transfected with plasmids encoding Payload A flanked by an ITR on either side, at least one Rep polypeptide, at least one Cap polypeptide, and at least one helper polypeptide, colcemid was added at 0.5 hours post-transfection, and cells were cultured in 3-liter batch bioreactors or 250-liter fed bioreactors for a period of time e.g., several days prior to sampling.

Counter-ions that a name gives are not always drawn.

With `CN[C@H]1CCc2cc(OC)c(OC)c(OC)c2-c2ccc(OC)c(=O)cc21` [colcemid, N-deacetyl-N-methylcolchicine], the “cell synchronization, cell cycle phase by FACS” value (from here on “cell synchronization”) with suspension HEK293 cells [1] was “G2 phase”. For the same molecule, the “cell cycle arrest, phase” value with suspension HEK293 cells [1] (suspension HEK293 cell cultures, FIG. 2B) was “G2/M phase”. For the same molecule, the “rAAV particle titer relative to controls” value with suspension HEK293 cells [2] (3-liter batch bioreactors, FIG. 8A) is reported as “increase”; in the assay on suspension HEK293 cells [2] (250-liter fed bioreactors, FIG. 8B-8C), “increase”.
In the case of `COc1cc2c(c(OC)c1OC)-c1ccc(OC)c(=O)cc1[C@@H](NC(C)=O)CC2` [colchicine, (S)—N-(5,6,7,9-tetrahydro-1,2,3,10-tetramethoxy-9-oxobenzo[a]heptalen-7-yl)acetamide], in the assay on suspension HEK293 cells [1], the “cell synchronization” value is listed as “G2 phase”.
With `CC[C@]1(O)C[C@H]2C[N@](CCc3c([nH]c4ccccc34)[C@@](C(=O)OC)(c3cc4c(cc3OC)N(C)[C@H]3[C@@](O)(C(=O)OC)[C@H](OC(C)=O)[C@]5(CC)C=CCN6CC[C@]43[C@@H]65)C2)C1` [vinblastine sulfate, vincaleukoblastine], the “cell synchronization” value with suspension HEK293 cells [1] is “G2 phase”.
